# According to publication PMC5196235 (International Journal for Parasitology: Drugs and Drug …, 2016):
# Where a name gives a salt, the structure may show the parent alone.
# What was measured:
# Asu-ACR-16 receptor [1] = target: T1, Asu-ACR-16 receptor (Ascaris suum, UniProt F1KYJ9); settings: ref Abongwa et al., 2016; cited from earlier work
# T1 sequence (F1KYJ9 1-504): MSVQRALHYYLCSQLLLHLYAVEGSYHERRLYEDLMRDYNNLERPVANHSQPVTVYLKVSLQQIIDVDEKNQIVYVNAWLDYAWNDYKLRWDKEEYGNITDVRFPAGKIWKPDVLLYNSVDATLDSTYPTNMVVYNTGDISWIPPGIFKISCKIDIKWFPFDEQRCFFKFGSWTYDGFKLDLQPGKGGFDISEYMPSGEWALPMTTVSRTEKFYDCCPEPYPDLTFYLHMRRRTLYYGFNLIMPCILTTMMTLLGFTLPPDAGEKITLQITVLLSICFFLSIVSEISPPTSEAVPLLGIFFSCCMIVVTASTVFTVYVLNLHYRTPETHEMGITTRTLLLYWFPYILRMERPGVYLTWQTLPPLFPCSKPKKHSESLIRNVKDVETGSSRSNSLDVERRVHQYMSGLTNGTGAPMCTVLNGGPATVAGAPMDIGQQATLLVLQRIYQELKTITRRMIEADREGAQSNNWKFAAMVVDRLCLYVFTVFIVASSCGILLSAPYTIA
# Asu-ACR-16 receptor [2] = target: T1, Asu-ACR-16 receptor; assay: Two-electrode voltage clamp of Asu-ACR-16 expressed in Xenopus oocytes; format: cell-based; settings: for Hill slope (nH): Asu-ACR-16 in Xenopus oocytes, Hill equation fit, mean ± S.E.M., N = 5; for Emax: read-out: maximum response (Imax); for effect at high concentration (response left out of the Hill fit): 30 μM 5-methylnicotine, 100 μM 6-methylnicotine, 300 μM homonicotine, 100 μM (S, R)-anabasine
Molecule,sensitivity of the Asu-ACR-16 receptor to the agonist (Asu-ACR-16 receptor [1]),Hill slope (nH) (Asu-ACR-16 receptor [2]),other results
"CC(=O)OCC[N+](C)(C)C [ACh, acetylcholine]",sensitive,2.93 ± 0.13,–
(±)-nornicotine,–,3.25 ± 0.49,–
O=c1c(Br)ccc2n1C[C@@H]1CNC[C@H]2C1 [3-bromocytisine],sensitive,–,–
"CN1CCCC1c1ccc(N)nc1.Cl.Cl (stereo not drawn) [6-AN, 5-(1-methyl-pyrrolidin-2-yl)-pyridin-2-ylamine dihydrochloride]",–,10.10 ± 0.15,agonist activity on Asu-ACR-16 (inward current) (Asu-ACR-16 receptor [2]; derivatives that elicited inward currents at 100 μM were classed as agonists): little agonist activity; Emax (Asu-ACR-16 receptor [2]): 6.29 ± 0.62%
CN1CCC[C@H]1c1cncc(Br)c1 [(S)-5-bromonicotine],–,2.46 ± 0.21,–
C#Cc1cncc([C@@H]2CCCN2C)c1 [(S)—SIB 1508Y],–,0.94 ± 0.04,Emax (Asu-ACR-16 receptor [2]): 100 ± 4.36%
Clc1ccc(C2CC3CCC2N3)cn1 (stereo not drawn) [epibatidine],sensitive,–,–
"C[N+]1(C)CCN(c2ccccc2)CC1.[I-] [DMPP, dimethyl-4-phenyllpiperazinium iodide]",sensitive,–,–
"CN1CCC[C@H]1c1cccnc1 [(S)-nicotine, (−)-nicotine hydrogen tartrate salt]",sensitive,3.39 ± 0.36,–
"anabasine [(S, R)-anabasine]",–,–,effect at high concentration (response left out of the Hill fit) (Asu-ACR-16 receptor [2]): inhibitory effect
O=c1cccc2n1C[C@@H]1CNC[C@H]2C1 [cytisine],sensitive,–,–
"Cc1cncc(C2CCCN2C)c1 (racemic) [5-methylnicotine, rac-5-methylnicotine]",–,2.09 ± 0.14,effect at high concentration (response left out of the Hill fit) (Asu-ACR-16 receptor [2]): inhibitory effects at high concentrations
